Where a name gives a salt, the structure may show the parent alone. Positions of bridges follow the written chain, without caps; N, C: chain ends. Non-standard residues stand in square brackets, D forms with d. Residues, ends and D or L forms follow the SMILES beside them. *: point of attachment. X3 = CC[C@H](C)CCCCC(=O)*; Dab = NCC[C@H](N)C(=O)O

One series in a line: in vitro. The following applies: rat, gh3-tre-luc cells, AC50 (uM) modified / 1000.
As for `CC[C@H](C)CCCCC(=O)N[C@@H](CCN)C(=O)N[C@H](C(=O)N[C@@H](CCN)C(=O)N[C@H]1CCNC(=O)[C@H]([C@@H](C)O)NC(=O)[C@H](CCN)NC(=O)[C@H](CCN)NC(=O)[C@H](CC(C)C)NC(=O)[C@@H](CC(C)C)NC(=O)[C@H](CCN)NC1=O)[C@@H](C)O` [Colistin A] (X3-[Dab]T[Dab][Dab][Dab][dL]L[Dab][Dab]T; lactam 4-C), the CC50 (in general, the concentration giving 50% cytotoxicity) at 24 h was over 50 µM. On to `C[C@H]1[C@H]2CC[C@H]3[C@@H]4CC=C5C[C@@H](N(C)C)CC[C@]5(C)[C@H]4CC[C@]23CN1C` [Conessine], for which the CC50 at 24 h is over 50 µM. As for `O=C1CC2CC1C1CCCC21` (centres unmarked) [Corodane], the CC50 at 24 h was over 90 µM. As to `C[C@]12C[C@H](O)[C@H]3[C@@H](CCC4=CC(=O)CC[C@@]43C)[C@@H]1CC[C@@H]2C(=O)CO` [Corticosterone], the CC50 at 24 h was over 90 µM. The compound `CC(=O)OCC(=O)[C@@]1(O)CC[C@H]2[C@@H]3CCC4=CC(=O)CC[C@]4(C)[C@H]3C(=O)C[C@@]21C` [Cortisone acetate] registered a CC50 at 24 h of over 50 µM. With `C[C@]12CCC(=O)C=C1CC[C@@H]1[C@@H]2C(=O)C[C@@]2(C)[C@H]1CC[C@]2(O)C(=O)CO` [Cortisone], the CC50 at 24 h was over 90 µM. Turning to `C[C@]12CCC(=O)C=C1CC[C@@H]1[C@@H]2CC[C@@]2(C)[C@H]1CC[C@]2(O)C(=O)CO` [Cortodoxone], the CC50 at 24 h was over 50 µM. For the compound `CN1C(=O)CC[C@H]1c1cccnc1` [Cotinine], the half-maximal cytotoxic concentration (CC50) at 24 h was over 90 µM. `O=c1ccc2ccccc2o1` [Coumarin] yielded a CC50 at 24 h of over 90 µM. Same read-out and setting: then `O=c1oc2ccccc2c(O)c1C1CCCc2ccccc21` (centres unmarked) [Coumatetralyl], with over 90 µM; and `O=c1oc2cc(O)ccc2c2oc3cc(O)ccc3c12` [Coumestrol], with over 90 µM; and `CN1CC(=O)NC1=N` [Creatinine], with over 50 µM. On the same count and under the same terms, then `CC(/C=C/C=C(\C)C(=O)O[C@@H]1O[C@H](CO[C@@H]2O[C@H](CO)[C@@H](O)[C@H](O)[C@H]2O)[C@@H](O)[C@H](O)[C@H]1O)=C\C=C\C=C(C)\C=C\C=C(/C)C(=O)O[C@@H]1O[C@H](CO[C@@H]2O[C@H](CO)[C@@H](O)[C@H](O)[C@H]2O)[C@@H](O)[C@H](O)[C@H]1O` [Crocin], with over 50 µM; and `O=C(O)c1cc(=O)c2c(OCC(O)COc3cccc4oc(C(=O)O)cc(=O)c34)cccc2o1` [Cromolyn sodium], with over 50 µM. Still for that read-out and setting: then `C/C=C/C=O` [Crotonaldehyde], with over 90 µM; and `C/C=C/C=N/NC(=O)c1ccncc1` [Crotoniazide], with over 50 µM.

The compound `CN(C)c1ccc(C2(c3ccc(N(C)C)cc3)OC(=O)c3cc(N(C)C)ccc32)cc1` [Crystal Violet lactone] gave a CC50 at 24 h of over 90 µM. On the same count and under the same terms, then `CC(C)(OO)c1ccccc1` [Cumene hydroperoxide], with 79.6 µM; and `CC(C)c1ccccc1` [Cumene], with over 100 µM.

`N#CCC(=O)NN` [Cyacetacide]: the CC50 at 24 h is over 50 µM. Compound `N#CCC(=O)O` [Cyanoacetic acid] had a CC50 at 24 h of over 90 µM. The compound `N#CNC(=N)N` [Cyanoguanidine] returned a CC50 at 24 h of over 90 µM. `Cc1cc(C(C)(C)C)c(O)c(C)c1Cn1c(=O)n(Cc2c(C)cc(C(C)(C)C)c(O)c2C)c(=O)n(Cc2c(C)cc(C(C)(C)C)c(O)c2C)c1=O` [Cyanox CY 1790] returned a CC50 at 24 h of over 90 µM.

With `O=c1[nH]c(=O)[nH]c(=O)[nH]1` [Cyanuric acid], the CC50 at 24 h was over 90 µM.

`Cc1ccc(-c2c(Cl)nc(C#N)n2S(=O)(=O)N(C)C)cc1` [Cyazofamid] displayed a CC50 at 24 h of 40.3 µM. On the same count and under the same terms, then `CSc1nc(NC2CC2)nc(NC(C)(C)C)n1` [Cybutryne], with over 90 µM.

Compound `CC1(C)S[C@@H]2[C@H](NC(=O)C3(N)CCCCC3)C(=O)N2[C@H]1C(=O)O` [Cyclacillin] registered a CC50 at 24 h of over 50 µM. Still for that read-out and setting: as for `CC(C=O)Cc1ccc(C(C)C)cc1` (centres unmarked) [Cyclamen aldehyde], the figure is over 90 µM; as for `CC1CC(OC(=O)C(O)c2ccccc2)CC(C)(C)C1` (centres unmarked) [Cyclandelate], over 50 µM; as for `O=C(O)C1(C(=O)Nc2ccc(Cl)cc2Cl)CC1` [Cyclanilide], over 90 µM.

`CN1CCN(C(c2ccccc2)c2ccccc2)CC1` [Cyclizine hydrochloride]: the CC50 at 24 h is over 20 µM. On the same count and under the same terms, then `CCSC(=O)N(CC)C1CCCCC1` [Cycloate], with over 90 µM. Take `CN(C)CCC=C1c2ccccc2C=Cc2ccccc21` [Cyclobenzaprine hydrochloride]: the CC50 at 24 h was 14.5 µM. The compound `O=C(c1ccccc1)C1CCC1` [Cyclobutyl phenyl ketone] registered a CC50 at 24 h of over 90 µM. In the case of `C1CCCCCCCCCCC1` [Cyclododecane], the CC50 at 24 h is over 20 µM. The compound `OC1CCCCCCCCCCC1` [Cyclododecanol] displayed a cytotoxic concentration (CC50) at 24 h of over 90 µM. Still for that read-out and setting: then `O=C1CCCCCCCCCCC1` [Cyclododecanone], with over 90 µM. Compound `CC(=O)Oc1ccc(C(=C2CCCCC2)c2ccc(OC(C)=O)cc2)cc1` [Cyclofenil] registered a CC50 at 24 h of over 50 µM.

Turning to `CC1(C)N=C(N)N=C(N)N1c1ccc(Cl)cc1` [Cycloguanil hydrochloride], the CC50 at 24 h is over 50 µM. The compound `OCC1CC=CCC1` (centres unmarked) [Cyclohex-3-en-1-ylmethanol] had a CC50 at 24 h of over 90 µM. Consider `C1CCCCC1` [Cyclohexane], for which the CC50 at 24 h is over 90 µM. In turn, `SC1CCCCC1` [Cyclohexanethiol] had a cytotoxic concentration (CC50) at 24 h of over 100 µM. `OC1CCCCC1` [Cyclohexanol] displayed a CC50 at 24 h of over 100 µM. On the same count and under the same terms, then `N#CC1(O)CCCCC1` [Cyclohexanone cyanohydrin], with over 90 µM; and `ON=C1CCCCC1` [Cyclohexanone oxime], with over 90 µM.

Regarding `CC(=O)C1CCCCC1=O` (centres unmarked) [Cyclohexanone,2-acetyl-], the CC50 at 24 h was over 90 µM. Turning to `O=C1CCCCC1` [Cyclohexanone], the CC50 at 24 h was over 100 µM. The compound `C1CCC2OC2C1` (centres unmarked) [Cyclohexene oxide] showed a CC50 at 24 h of over 100 µM. With `NC1CCCCC1` [Cyclohexylamine hydrochloride], the CC50 at 24 h was over 90 µM.

In turn, `O=C(c1ccccc1)C1CCCCC1` [Cyclohexylphenylketone] showed a CC50 at 24 h of over 90 µM. `CC1=C2C[C@H]3[C@@H](CC=C4C[C@@H](O)CC[C@@]43C)[C@@H]2CC[C@]12O[C@@H]1C[C@H](C)CN[C@H]1[C@H]2C` [Cyclopamine] had a CC50 at 24 h of 5.73 µM.

In turn, `O=C1CCCCCCCCCCCCCC1` [Cyclopentadecanone] displayed a CC50 at 24 h of 60.9 µM. Same read-out and setting: then `C1CCCC1` [Cyclopentane], with over 90 µM; and `SC1CCCC1` [Cyclopentanethiol], with over 90 µM. As to `OC1CCCC1` [Cyclopentanol], the CC50 at 24 h was over 90 µM. Consider `ON=C1CCCC1` [Cyclopentanone oxime], for which the CC50 at 24 h is over 90 µM. In turn, `O=C1CCCC1` [Cyclopentanone] returned a CC50 at 24 h of over 90 µM.

The compound `NS(=O)(=O)c1cc2c(cc1Cl)NC(CC1CCCC1)NS2(=O)=O` (centres unmarked) [Cyclopenthiazide] displayed a CC50 at 24 h of over 20 µM. In the case of `CN(C)CCOC(=O)C(c1ccccc1)C1(O)CCCC1` (centres unmarked) [Cyclopentolate hydrochloride], the CC50 at 24 h is over 50 µM.

`O=P1(N(CCCl)CCCl)NCCCO1` (centres unmarked) [Cyclophosphamide monohydrate] showed a cytotoxic concentration (CC50) at 24 h of over 90 µM. The same measure, in the same setting: as for `N[C@@H]1CON=C1O` [Cycloserine], the figure is over 50 µM. In the case of `NS(=O)(=O)c1cc2c(cc1Cl)NC(C1CC3C=CC1C3)NS2(=O)=O` (centres unmarked) [Cyclothiazide], the CC50 at 24 h is over 50 µM. For the compound `COc1cc(/C=C2\CCC/C(=C\c3ccc(O)c(OC)c3)C2=O)ccc1O` [Cyclovalone], the CC50 at 24 h was found to be 7.98 µM. For the compound `CC1(C)C(C=C(Cl)Cl)[C@@H]1C(=O)O[C@@H](C#N)c1ccc(F)c(Oc2ccccc2)c1` (some centres unmarked) [Cyfluthrin], the 50% cytotoxic concentration (CC50) at 24 h was over 90 µM. In turn, `NC(=O)C1c2ccccc2CCc2ccccc21` [Cyheptamide] came in with a CC50 at 24 h of over 50 µM. In turn, `CCNC(=O)NC(=O)/C(C#N)=N/OC` [Cymoxanil] displayed a CC50 at 24 h of over 90 µM. `CC1(C)[C@H](C=C(Cl)Cl)[C@H]1C(=O)O[C@H](C#N)c1cccc(Oc2ccccc2)c1` [Cypermethrin] came in with a CC50 at 24 h of over 50 µM. Compound `CC(C)=CC1C(C(=O)OC(C#N)c2cccc(Oc3ccccc3)c2)C1(C)C` (centres unmarked) [Cyphenothrin] had a CC50 at 24 h of over 90 µM. Take `CC(C1CC1)C(O)(Cn1cncn1)c1ccc(Cl)cc1` (centres unmarked) [Cyproconazole]: the half-maximal cytotoxic concentration (CC50) at 24 h was over 90 µM.

The same series, now with this note: rat, gh3-tre-luc cells, AC50 (uM) modified / 1000, Tox21_110001=Tox21_111290; viability, 1 nM T3 present, 24 h.
Take `CCOP(=S)(OCC)Oc1ccc2c(C)c(Cl)c(=O)oc2c1` [Coumaphos]: the CC50 at 24 h was over 50 µM.

Still in this series, the particulars now being: rat, gh3-tre-luc cells, AC50 (uM) modified / 1000, Tox21_110001=Tox21_201493; viability, 1 nM T3 present, 24 h.
The compound `O=NN(O)c1ccccc1` [Cupferron] had a half-maximal cytotoxic concentration (CC50) at 24 h of over 90 µM.

Staying with this series, now noted: rat, gh3-tre-luc cells, AC50 (uM) modified / 1000, Tox21_110001=Tox21_201619; viability, 1 nM T3 present, 24 h.
The compound `CCNc1nc(Cl)nc(NC(C)(C)C#N)n1` [Cyanazine] returned a CC50 at 24 h of over 90 µM.

The same series, now with this note: rat, gh3-tre-luc cells, AC50 (uM) modified / 1000, Tox21_110001=Tox21_201841; viability, 1 nM T3 present, 24 h.
As for `CCOP(=S)(OCC)Oc1ccc2c(C)c(Cl)c(=O)oc2c1` [Coumaphos], the half-maximal cytotoxic concentration (CC50) at 24 h is over 90 µM.

Staying with this series, now noted: rat, gh3-tre-luc cells, AC50 (uM) modified / 1000, Tox21_110001=Tox21_202811; viability, 1 nM T3 present, 24 h.
In the case of `N#CNC#N` [Cyanamide,cyano-,sodium salt], the CC50 at 24 h is over 90 µM.

The same series, now with this note: rat, gh3-tre-luc cells, AC50 (uM) modified / 1000, Tox21_110001=Tox21_301029; viability, 1 nM T3 present, 24 h.
The compound `CCCCOC(=O)[C@@H](C)Oc1ccc(Oc2ccc(C#N)cc2F)cc1` [Cyhalofop-butyl] displayed a CC50 at 24 h of over 90 µM.

The series is the same for the next values; noted with them: rat, gh3-tre-luc cells, AC50 (uM) modified / 1000, Tox21_110001=Tox21_301860; viability, 1 nM T3 present, 24 h.
Take `CC(=O)CC(c1ccc(Cl)cc1)c1c(O)c2ccccc2oc1=O` (centres unmarked) [Coumachlor]: the CC50 at 24 h was over 100 µM.

The same series, now with this note: rat, gh3-tre-luc cells, AC50 (uM) modified / 1000, Tox21_110001=Tox21_302262; viability, 1 nM T3 present, 24 h.
The compound `CNP(=O)(OC)Oc1ccc(C(C)(C)C)cc1Cl` (centres unmarked) [Crufomate] displayed a CC50 at 24 h of over 90 µM.
